This note sets out measurements from patent publication US20200085868A1, “Method For Treating Cancer” (China Medical University Hospital, priority 2018, published 2020).

“Also recorded” adds a separate entry of the source.

Holding throughout (assay type): cell-based
For experiment [1], the system named is HLA-G expression of the human ovarian cancer cell line SKOV3. Briefly: HLA-G expression of tumor cells treated with chemotherapy drug, flow cytometry. The conditions noted are these: SKOV3, carboplatin 20 μM, 48 hours; control 14.69%. The procedure:
(§1) The human ovarian cancer cell line SKOV3 is cultured in McCoy's 5A culture medium containing 10% FBS.
(§2) First, the human breast cancer cell line MDA-MB-231, the human malignant brain tumor cell line DBTRG, the human pancreatic cancer cell line AsPC1 and the human ovarian cancer cell line SKOV3 are seeded in a 6-well plate at a density of 2×10^5 cells/well. The cells are subsequently incubated for 24 hours. […] In a control, the tumor cells are untreated.
(§3) Please refer to FIGS. 2A, 2B, 2C, 2D and 2E, which are analytical results of flow cytometry showing a HLA-G expression of tumor cells treated with a chemotherapy drug. FIG. 2A is analytical result of flow cytometry of the human breast cancer cell line MDA-MB-231. FIG. 2B is analytical result of flow cytometry of the human malignant brain tumor cell line DBTRG. FIG. 2C is analytical result of flow cytometry of the human pancreatic cancer cell line AsPC1. FIG. 2D is analytical result of flow cytometry of the human ovarian cancer cell line SKOV3. FIG. 2E is a statistical chart of FIGS. 2A, 2B, 2C and 2D.
Background: Flow cytometry measures light scatter and fluorescence of single cells or particles in a stream.

Experiment [2] relates to human ovarian cancer cell line SKOV3. Briefly: Tumor cell death (cytotoxicity), Annexin V-FITC and PI staining, flow cytometry. As to conditions: group 1: chemotherapy drug alone, carboplatin 20 μM; control less than 10%. The procedure: (§4) First, the human breast cancer cell line MDA-MB-231, the human malignant brain tumor cell line DBTRG, the human pancreatic cancer cell line AsPC1 and the human ovarian cancer cell line SKOV3 are seeded in a 12-well plate at a density of 1×10^5 cells/well. The cells are subsequently incubated for 24 hours. Each type of the tumor cells is divided into six groups. In a control, the tumor cells are untreated. In a group 1, the tumor cells are treated with the chemotherapy drug. In a group 2, the tumor cells are treated with the parental NK-92 cell line. In a group 3, the tumor cells are treated with the parental NK-92 cell line and the chemotherapy drug. In the groups 2 and 3, the number of the parental NK-92 cell line treated is 1×10^5 cells. In a group 4, the tumor cells are treated with the chimeric antigen receptor expressing cell of Example 1. […] The treated cells are stained with Annexin V-FITC and propidium iodide (PI), and the apoptosis and the death of the tumor cells are detected by the flow cytometry. The sum of the percentage of cells stained with Annexin V-FITC and/or PI (that is the percentage of cells in the first quadrant, the second quadrant, and the fourth quadrant of the bivariate flow cytometry scatter plot) are calculated to obtain the cytotoxicity. The results of the cytotoxicity are counted after the three independent trials in each group. […]

In experiment [3] the test system is HLA-G expression level on the plasma membrane of the human ovarian cancer cell line SKOV3. Kind of experiment: HLA-G expression level of tumor cells treated with chemotherapy drug, immunofluorescence staining assay. As to conditions: SKOV3, carboplatin 20 μM, 48 hours, vs untreated control. The procedure:
(§5) To investigate effect of the treatment of the chemotherapy drug on the tumor cells, the tumor cells are treated with the chemotherapy drug, and then detecting the HLA-G expression level of the tumor cells.
(§6) The tumor cells used are human breast cancer cell line MDA-MB-231, human malignant brain tumor cell line DBTRG-05MG (hereinafter referred to as DBTRG), human pancreatic cancer cell line AsPC1, and human ovarian cancer cell line SKOV3. The tumor cell lines used are all purchased from the American Type Culture Collection (ATCC). The human breast cancer cell line MDA-MB-231 is a triple-negative breast cancer cell line, that is, the hormone receptor (ER, PR) and HER-2 receptor thereof are negative, and the human breast cancer cell line MDA-MB-231 is cultured in RPMI culture medium containing 10% fetal bovine serum (FBS). The human malignant brain tumor cell line DBTRG is cultured in DMEM culture medium containing 10% FBS. […]
(§7) First, the human breast cancer cell line MDA-MB-231, the human malignant brain tumor cell line DBTRG, the human pancreatic cancer cell line AsPC1 and the human ovarian cancer cell line SKOV3 are seeded in a 6-well plate at a density of 2×10^5 cells/well. […] Then, the HLA-G expression level of the tumor cells are detected by immunofluorescence staining assay and flow cytometry.

The subject of experiment [4] is human breast cancer cell line MDA-MB-231. Briefly: Tumor cell death (cytotoxicity), Annexin V-FITC and PI staining, flow cytometry. The conditions noted are these: group 1: chemotherapy drug alone, doxorubicin 200 nM; control about 10%. The procedure: (§8) The cells are subsequently incubated for 24 hours. […] In a control, the tumor cells are untreated.
as §8, §8

The subject of experiment [5] is HLA-G expression of the human breast cancer cell line MDA-MB-231. Briefly: HLA-G expression of tumor cells treated with chemotherapy drug, flow cytometry. The conditions noted are these: MDA-MB-231, doxorubicin 200 nM, 48 hours; control 12.27%. As to the method: as §5, §6, §7
Experiment [6] has as its system HLA-G expression level on the plasma membrane of the human breast cancer cell line MDA-MB-231. Briefly: HLA-G expression level of tumor cells treated with chemotherapy drug, immunofluorescence staining assay. As to conditions: MDA-MB-231, doxorubicin 200 nM, 48 hours, vs untreated control. As to the method: as §5, §6, §7
The test system of experiment [7] is HLA-G expression of the human pancreatic cancer cell line AsPC1. Briefly: HLA-G expression of tumor cells treated with chemotherapy drug, flow cytometry. The conditions noted are these: AsPC1, gemcitabine 20 μM, 48 hours; control 13.18%. As to the method: as §1, §2, §3
Experiment [8] relates to human pancreatic cancer cell line AsPC1. Briefly: Tumor cell death (cytotoxicity), Annexin V-FITC and PI staining, flow cytometry. As to conditions: group 1: chemotherapy drug alone, gemcitabine 20 μM. As to the method:
as §4

For experiment [9], the system named is HLA-G expression of the human malignant brain tumor cell line DBTRG. Briefly: HLA-G expression of tumor cells treated with chemotherapy drug, flow cytometry. As to conditions: temozolomide 80 μg/mL, 48 hours, control 14.01%. As to the method: as §5, §6, §7

For `N.N.O=C([O-])C1(C(=O)[O-])CCC1.[Pt+2]` [carboplatin], in experiment [1], the “mean fluorescence intensity (MFI) of HLA-G” value (shortened to “mean fluorescence intensity”) is on record as 38.58%. Besides, the “death rate of SKOV3” value in experiment [2] is given as “increased, but there is no statistically significant difference compared to the control; also recorded: comparable to that of the control”. The “HLA-G expression level on the plasma membrane” value in experiment [3] is “increase”.
Regarding `COc1cccc2c1C(=O)c1c(O)c3c(c(O)c1C2=O)C[C@@](O)(C(=O)CO)C[C@@H]3O[C@H]1C[C@H](N)[C@H](O)[C@H](C)O1` [doxorubicin], the “death rate of MDA-MB-231” value in experiment [4] is reported as “increased, but there is no statistically significant difference compared to the control”. Also, the “mean fluorescence intensity” value in [5] is recorded as 64.45%. In addition, the “HLA-G expression level on the plasma membrane” value in [6] is on record as “increase”.
In the case of `Nc1ccn([C@@H]2O[C@H](CO)[C@@H](O)C2(F)F)c(=O)n1` [gemcitabine], the “mean fluorescence intensity” value in experiment [7] was 41.44%. Besides, the “death rate of AsPC1” value in [8] is reported as “increased, but there is no statistically significant difference compared to the control; also recorded: comparable to that of the control”.
For the compound `Cn1nnc2c(C(N)=O)ncn2c1=O` [temozolomide], in [9], the “mean fluorescence intensity” value was 22.33%.
